36 molecules from US7977371B2, “Pyrrole derivative having ureido group and aminocarbonyl group as substituents” (Santen Pharmaceutical Co., Ltd., priority 2007, dated 2011) can be followed below.

For the assay, the system named is TNF-α-induced IL-6 production in normal human skin fibroblast-derived CCD-1059Sk cells. Put plainly: Test for measurement of inhibitory activity against TNF-α-induced IL-6 production. The class given is cell-based. The note with it: test compound at 10 μM, TNF-α stimulation 16 hours, inhibition ratio of 100% or more is indicated as 100%; for inhibition at 10 µM: Homo sapiens, CCD-1059Sk, 16 h. As for the experimental part:
1. Test for Measurement of Inhibitory Activity Against IL-6 Production
An inhibitory effect on TNF-α-induced IL-6 production in normal human skin fibroblast-derived CCD-1059Sk cells (ATCC No. CRL-2072) was evaluated. The amount of IL-6 was determined by the homogeneous time-resolved fluorescence method using HTRF™ Human IL-6 kit (Cat. No. 62IL6PEB, manufactured by CIS-Bio international, Inc.). Specific test methods will be described below.
(Preparation of Test Compound Solution)
After a test compound was dissolved in dimethyl sulfoxide, the resulting solution was diluted with D-MEM medium containing 0.1% heat-inactivated fetal bovine serum, 0.1 mM MEM non-essential amino acid solution, 100 U/mL penicillin and 100 μg/mL streptomycin (hereinafter referred to as “medium”), whereby a 40 μM test compound solution was prepared.
(Test Method and Measurement Method)
1) CCD-1059Sk cells prepared at a density of 3×10^5 cells/mL were inoculated in a 384-well plate in an amount of 10 μL per well such that the cell density was 3×10^3 cells/well.
2). After the plate was incubated at 37° C. for several hours in a CO2 incubator, 5 μL of the test compound was added to each well.
3) After the plate was incubated at 37° C. for 1 hour in a CO2 incubator, 5 μL of a 40 ng/mL TNF-α solution was added to each well.
4) After the plate was incubated at 37° C. for 16 hours in a CO2 incubator, 10 μL of a cryptate-labeled anti-IL-6 antibody and an XL665-labeled anti-IL-6 antibody containing potassium fluoride was added to each well.
5) After the plate was incubated at room temperature for several hours, a fluorescence intensity ratio (665 nm/620 nm) was determined for each well using a multimode plate reader Analyse™ HT (manufactured by Molecular Device Corporation) and Criterion Host software version 2.00 (manufactured by Molecular Device Corporation), and then, the amount of IL-6 was calculated.
6) The same procedures as in the above 1) to 5) were performed except that 0.4% dimethyl sulfoxide was added in place of the test compound, and the obtained result was designated as the control.
7) The same procedures as in the above 1) to 5) were performed except that 0.4% dimethyl sulfoxide and the medium were added in place of the test compound and the TNF-α solution, respectively, and the obtained result was designated as the background.
(Calculation Formula of IL-6 Production Inhibition Ratio)
An IL-6 production inhibition ratio (%) was calculated from the following formula. IL-6 Production Inhibition Ratio (%)=100×{1−[(Amount of IL-6 for Test Compound)−(Amount of IL-6 for Background)/(Amount of IL-6 for Control)−(Amount of IL-6 for Background)]} (Evaluation Results)

As for `NC(=O)Nc1[nH]c(-c2ccc(Br)cc2)cc1C(N)=O` [Compound 1-1, 2-Aminocarbonylamino-5-(4-bromophenyl)pyrrole-3-carboxamide], the inhibition at 10 µM amounted to 94%.

On to `NC(=O)Nc1[nH]c(-c2ccccn2)cc1C(N)=O` [Compound 1-2, 2-Aminocarbonylamino-5-(pyridin-2-yl) pyrrole-3-carboxamide], for which the inhibition at 10 µM was determined as 85%.

Regarding `NC(=O)Nc1[nH]c(-c2ccccc2)cc1C(N)=O` [Compound 1-4, 2-Aminocarbonylamino-5-phenylpyrrole-3-carboxamide], the inhibition at 10 µM is 88%.

`NC(=O)Nc1[nH]c(-c2ccc(-c3ccccc3)cc2)cc1C(N)=O` [Compound 1-5, 2-Aminocarbonylamino-5-(4-biphenyl) pyrrole-3-carboxamide]: the inhibition at 10 µM came out at 67%.

On to `NC(=O)Nc1[nH]c(-c2cccc([N+](=O)[O-])c2)cc1C(N)=O` [Compound 1-6, 2-Aminocarbonylamino-5-(3-nitrophenyl) pyrrole-3-carboxamide], for which the inhibition at 10 µM is 92%.

With `Cc1ccc(-c2cc(C(N)=O)c(NC(N)=O)[nH]2)cc1` [Compound 1-11, 2-Aminocarbonylamino-5-(4-methylphenyl) pyrrole-3-carboxamide], the inhibition at 10 µM is 88%.

Take `NC(=O)Nc1[nH]c(-c2ccccc2C(F)(F)F)cc1C(N)=O` [Compound 1-13, 2-Aminocarbonylamino-5-(2-trifluoromethylphenyl)pyrrole-3-carboxamide]: the inhibition at 10 µM is 93%.

Take `N#Cc1ccc(-c2cc(C(N)=O)c(NC(N)=O)[nH]2)cc1` [Compound 1-15, 2-Aminocarbonylamino-5-(4-cyanophenyl) pyrrole-3-carboxamide]: the inhibition at 10 µM is 80%.

Take `NC(=O)Nc1[nH]c(-c2cccs2)cc1C(N)=O` [Compound 1-16, 2-Aminocarbonylamino-5-(thiophen-2-yl) pyrrole-3-carboxamide]: the inhibition at 10 µM worked out at 94%.

Consider `COc1ccc(OC)c(-c2cc(C(N)=O)c(NC(N)=O)[nH]2)c1` [Compound 1-17, 2-Aminocarbonylamino-5-(2,5-dimethoxyphenyl) pyrrole-3-carboxamide], for which the inhibition at 10 µM came to 96%.

Turning to `COc1ccc(F)cc1-c1cc(C(N)=O)c(NC(N)=O)[nH]1` [Compound 1-19, 2-Aminocarbonylamino-5-(5-fluoro-2-methoxyphenyl)pyrrole-3-carboxamide], the inhibition at 10 µM stood at 100%.

Regarding `Cc1c(-c2ccc(Br)cc2)[nH]c(NC(N)=O)c1C(N)=O` [Compound 1-21, 2-Aminocarbonylamino-5-(4-bromophenyl)-4-methylpyrrole-3-carboxamide], the inhibition at 10 µM turned out to be 88%.

For `COc1ccc(Cl)cc1-c1cc(C(N)=O)c(NC(N)=O)[nH]1` [Compound 1-22, 2-Aminocarbonylamino-5-(5-chloro-2-methoxyphenyl)pyrrole-3-carboxamide], the “IL-6 production inhibition ratio” value was 100%.

Regarding `COc1cc(C)c(Cl)cc1-c1cc(C(N)=O)c(NC(N)=O)[nH]1` [Compound 1-24, 2-Aminocarbonylamino-5-(5-chloro-2-methoxy-4-methylphenyl)pyrrole-3-carboxamide], the inhibition at 10 µM amounted to 99%.

With `NC(=O)Nc1[nH]c(-c2cc(Cl)ccc2Cl)cc1C(N)=O` [Compound 1-27, 2-Aminocarbonylamino-5-(2,5-dichlorophenyl) pyrrole-3-carboxamide], the inhibition at 10 µM came out at 100%.

Consider `NC(=O)Nc1[nH]c(-c2cccc(F)c2)cc1C(N)=O` [Compound 1-28, 2-Aminocarbonylamino-5-(3-fluorophenyl) pyrrole-3-carboxamide], for which the inhibition at 10 µM was 97%.

Turning to `CCOC(=O)c1ccc(-c2cc(C(N)=O)c(NC(N)=O)[nH]2)cc1` [Compound 1-30, 2-Aminocarbonylamino-5-(4-ethoxycarbonylphenyl) pyrrole-3-carboxamide], the inhibition at 10 µM is 90%.

As to `NC(=O)Nc1[nH]c(-c2ccc(F)c(Cl)c2)cc1C(N)=O` [Compound 1-36, 2-Aminocarbonylamino-5-(3-chloro-4-fluorophenyl)pyrrole-3-carboxamide], the inhibition at 10 µM worked out at 100%.

Turning to `COc1ccc(-c2cc(C(N)=O)c(NC(N)=O)[nH]2)cc1Cl` [Compound 1-37, 2-Aminocarbonylamino-5-(3-chloro-4-methoxyphenyl)pyrrole-3-carboxamide], the inhibition at 10 µM was 98%.

For `N#Cc1cccc(-c2cc(C(N)=O)c(NC(N)=O)[nH]2)c1` [Compound 1-39, 2-Aminocarbonylamino-5-(3-cyanophenyl) pyrrole-3-carboxamide], the inhibition at 10 µM turned out to be 99%.

Turning to `NC(=O)Nc1[nH]c(-c2ccccc2Cl)cc1C(N)=O` [Compound 1-40, 2-Aminocarbonylamino-5-(2-chlorophenyl) pyrrole-3-carboxamide], the inhibition at 10 µM stood at 99%.

As to `Cc1ccc(-c2cc(C(N)=O)c(NC(N)=O)[nH]2)s1` [Compound 1-41, 2-Aminocarbonylamino-5-(5-methylthiophen-2-yl) pyrrole-3-carboxamide], the inhibition at 10 µM stood at 96%.

For `Cc1ccccc1-c1cc(C(N)=O)c(NC(N)=O)[nH]1` [Compound 1-42, 2-Aminocarbonylamino-5-(2-methylphenyl) pyrrole-3-carboxamide], the inhibition at 10 µM was determined as 94%.

Take `CSc1cccc(-c2cc(C(N)=O)c(NC(N)=O)[nH]2)c1` [Compound 1-43, 2-Aminocarbonylamino-5-(3-methylthiophenyl) pyrrole-3-carboxamide]: the inhibition at 10 µM amounted to 88%.

In the case of `CCSc1cccc(-c2cc(C(N)=O)c(NC(N)=O)[nH]2)c1` [Compound 1-44, 2-Aminocarbonylamino-5-(3-ethylthiophenyl) pyrrole-3-carboxamide], the inhibition at 10 µM was found to be 92%.

With `NC(=O)Nc1[nH]c(-c2ccccc2F)cc1C(N)=O` [Compound 1-45, 2-Aminocarbonylamino-5-(2-fluorophenyl) pyrrole-3-carboxamide], the inhibition at 10 µM was 95%.

As for `NC(=O)Nc1[nH]c(-c2ccc(Cl)s2)cc1C(N)=O` [Compound 1-48, 2-Aminocarbonylamino-5-(5-chlorothiophen-2-yl)pyrrole-3-carboxamide], the inhibition at 10 µM stood at 98%.

For `Cc1cc(-c2cc(C(N)=O)c(NC(N)=O)[nH]2)c(C)s1` [Compound 1-51, 2-Aminocarbonylamino-5-(2,5-dimethylthiophen-3-yl)pyrrole-3-carboxamide], the inhibition at 10 µM turned out to be 96%.

In the case of `NC(=O)Nc1[nH]c(-c2cc(F)c(F)cc2F)cc1C(N)=O` [Compound 1-52, 2-Aminocarbonylamino-5-(2,4,5-trifluorophenyl) pyrrole-3-carboxamide], the inhibition at 10 µM amounted to 93%.

As for `NC(=O)Nc1[nH]c(-c2cc(F)ccc2F)cc1C(N)=O` [Compound 1-53, 2-Aminocarbonylamino-5-(2,5-difluorophenyl) pyrrole-3-carboxamide], the inhibition at 10 µM worked out at 94%.

For `NC(=O)Nc1[nH]c(-c2ccccc2O)cc1C(N)=O` [Compound 3-1, 2-Aminocarbonylamino-5-(2-hydroxyphenyl)pyrrole-3-carboxamide], the inhibition at 10 µM was 95%.

In the case of `NC(=O)Nc1[nH]c(-c2cc(F)ccc2O)cc1C(N)=O` [Compound 3-3, 2-Aminocarbonylamino-5-(5-fluoro-2-hydroxyphenyl)pyrrole-3-carboxamide], the inhibition at 10 µM came out at 100%.

For `NC(=O)Nc1[nH]c(-c2cc(Cl)ccc2O)cc1C(N)=O` [Compound 3-4, 2-Aminocarbonylamino-5-(5-chloro-2-hydroxyphenyl)pyrrole-3-carboxamide], the inhibition at 10 µM was 100%.

As to `N#CCOc1ccccc1-c1cc(C(N)=O)c(NC(N)=O)[nH]1` [Compound 4-1, 2-Aminocarbonylamino-5-(2-cyanomethyloxyphenyl)pyrrole-3-carboxamide], the inhibition at 10 µM stood at 96%.

For `N#CCOc1cccc(-c2cc(C(N)=O)c(NC(N)=O)[nH]2)c1` [Compound 4-9, 2-Aminocarbonylamino-5-(3-cyanomethyloxyphenyl) pyrrole-3-carboxamide], the inhibition at 10 µM was 89%.

For `CCOc1ccccc1-c1cc(C(N)=O)c(NC(N)=O)[nH]1` [Compound 4-11, 2-Aminocarbonylamino-5-(2-ethoxyphenyl)pyrrole-3-carboxamide], the inhibition at 10 µM is 97%.

The term inhibition denotes the percentage by which the read-out fell short of the control.
